Here are results for twelve compounds from patent US9259491B2, “Class of diazepine derivative chelating agents and complexes with paramagnetic metals thereof as MRI contrast agents” (BRACCO IMAGING S.P.A., priority 2012, dated 2016).

Data set [1] in a line: Millimolar relaxivity r1p from T1 measurements in water, HSA 4% and human plasma (0.47T/20 MHz, 25° C.). It counts as physicochemical. As for the experimental part: (§1) For all the compounds, longitudinal relaxation times (T1) at 20 MHz and at 25° C. on a mq20 Minispec instrument (Bruker Biospin, Germany) were measured in water, human serum albumin at physiological concentration and human plasma. Millimolar relaxivity r1p was thus determined from T1 measurements using the following equation: R^i1obs=1/T^i,J1obs=r^i,j1p·[Gd^3+]+1/T^j1 wherein R^i1obs is the observed relaxation […] of the selected contrast agent, T1obs is the observed longitudinal relaxation time of the solution and the indexes i and j relate to the contrast agent and to the medium respectively.

The nature of data set [2]: Stability at 37° C. of diazepine complexes determined through r1p measurement in different media. Type of data set: physicochemical. To be noted: 0.47T, 25° C. As for the experimental part: as §1
In its turn, this means that the present amphiphilic complexes can be administered and detected during MRI experiments allowing a clear and exhaustive analysis of the image over a suitable frame of time.

For `CCCCCCCCCCCC(=O)OC[C@H](COP(=O)(O)OCCNC(=O)CCCCC1(N(CC(=O)[O-])CC(=O)[O-])CN(CC(=O)[O-])CCN(CC(=O)[O-])C1)OC(=O)CCCCCCCCCCC.[Gd+3].[Na+]` [Compound 9b], the results for the r1p in data set [1] (HSA 4%), in data set [1] (Human plasma) and in data set [1] (Water) were 32.0 mM⁻¹ s⁻¹, 32.5 mM⁻¹ s⁻¹ and 16.7 mM⁻¹ s⁻¹, respectively. In addition, the “r1p (stability at 37° C.)” value was found to be 30.9 mM⁻¹ s⁻¹ in data set [2] (Human plasma, 1 h); 28.3 mM⁻¹ s⁻¹ in data set [2] (Human plasma, 4 h); 32.5 mM⁻¹ s⁻¹ in data set [2] (Human plasma, T0); 15.9 mM⁻¹ s⁻¹ in data set [2] (Water, 1 h); 15.5 mM⁻¹ s⁻¹ in data set [2] (Water, 4 h); 16.7 mM⁻¹ s⁻¹ in data set [2] (Water, T0).
As for `CCCCCCN(CCCCCC)C(=O)CCCCC1(N(CC(=O)[O-])CC(=O)[O-])CN(CC(=O)[O-])CCN(CC(=O)[O-])C1.[Gd+3].[Na+]` [Compound 12b, [[6-[Bis[(carboxy)methyl]amino]-6-[5-(dihexylamino)-5-oxopent-1-yl]-tetrahydro-1H-1,4-diazepine-1,4(5H)-diacetate(4-)]gadolinate(1-)]sodium], the r1p in data set [1] (HSA 4%) amounted to 31.5 mM⁻¹ s⁻¹; in data set [1] (Human plasma), 33.7 mM⁻¹ s⁻¹; in data set [1] (Water), 13.0 mM⁻¹ s⁻¹.
Taken in the same sequence, the figures for `CCCCCCCCN(CCCCCCCC)C(=O)CCCCC1(N(CC(=O)[O-])CC(=O)[O-])CN(CC(=O)[O-])CCN(CC(=O)[O-])C1.[Gd+3].[Na+]` [Compound 12c, [[6-[Bis[(carboxy)methyl]amino]-6-[5-(dioctylamino)-5-oxopent-1-yl]-tetrahydro-1H-1,4-diazepine-1,4(5H)-diacetate(4-)]gadolinate(1-)]sodium] were 54.2 mM⁻¹ s⁻¹, 50.2 mM⁻¹ s⁻¹ and 13.3 mM⁻¹ s⁻¹.
In the case of `CCCCCCCCCCN(CCCCCCCCCC)C(=O)CCCCC1(N(CC(=O)[O-])CC(=O)[O-])CN(CC(=O)[O-])CCN(CC(=O)[O-])C1.[Gd+3].[Na+]` [Compound 12d, [[6-[Bis[(carboxy)methyl]amino]-6-[5-(didecylamino)-5-oxopent-1-yl]-tetrahydro-1H-1,4-diazepine-1,4(5H)-diacetate(4-)]gadolinate(1-)]sodium], the r1p in data set [1] (HSA 4%) came to 46.7 mM⁻¹ s⁻¹; in data set [1] (Human plasma), 45.2 mM⁻¹ s⁻¹; in data set [1] (Water) it was 23.5 mM⁻¹ s⁻¹. The “r1p (stability at 37° C.)” value is 40.9 mM⁻¹ s⁻¹ in data set [2] (HSA 4%, 5 h); 46.7 mM⁻¹ s⁻¹ in data set [2] (HSA 4%, T0); 39.2 mM⁻¹ s⁻¹ in data set [2] (Human plasma, 2 h); 34.7 mM⁻¹ s⁻¹ in data set [2] (Human plasma, 5 h); 45.2 mM⁻¹ s⁻¹ in data set [2] (Human plasma, T0); 20.4 mM⁻¹ s⁻¹ in data set [2] (Water, 2 h). Moreover, the “r1p (stability at 37° C.)” value in data set [2] (Water, 5 h) was determined as 15.8 mM⁻¹ s⁻¹; in data set [2] (Water, T0) it was 23.5 mM⁻¹ s⁻¹.
On to `CCCCCCCCCCCCN(CCCCCCCCCCCC)C(=O)CCCCC1(N(CC(=O)[O-])CC(=O)[O-])CN(CC(=O)[O-])CCN(CC(=O)[O-])C1.[Gd+3].[Na+]` [Compound 12e, [[6-[Bis[(carboxy)methyl]amino]-6-[5-(didodecylamino)-5-oxopent-1-yl]-tetrahydro-1H-1,4-diazepine-1,4(5H)-diacetate(4-)]gadolinate(1-)]sodium], for which the results for the r1p in data set [1] (HSA 4%), in data set [1] (Human plasma) and in data set [1] (Water) were 40.4 mM⁻¹ s⁻¹, 36.2 mM⁻¹ s⁻¹ and 33.4 mM⁻¹ s⁻¹, respectively. The “r1p (stability at 37° C.)” value amounted to 35.2 mM⁻¹ s⁻¹ in data set [2] (Human plasma, 2 h); 32.3 mM⁻¹ s⁻¹ in data set [2] (Human plasma, 4 h); 36.2 mM⁻¹ s⁻¹ in data set [2] (Human plasma, T0); 31.3 mM⁻¹ s⁻¹ in data set [2] (Water, 2 h); 30.4 mM⁻¹ s⁻¹ in data set [2] (Water, 4 h); 33.4 mM⁻¹ s⁻¹ in data set [2] (Water, T0).
In the case of `CCCCCCCCCCN(CCCCCCCCCC)C(=O)C1CCC(C2(N(CC(=O)[O-])CC(=O)[O-])CN(CC(=O)[O-])CCN(CC(=O)[O-])C2)CC1.[Gd+3].[Na+]` [Compound 25a, [[6-[Bis(carboxymethyl)amino]-6-[(1R,4R)-4-[(didecylamino)-carbonyl]-cyclohexane-1-yl]tetrahydro-1H-1,4-diazepine-1,4(5H)diacetate(4-)]gadolinate(1-)]sodium], the r1p in data set [1] (HSA 4%) is 45.8 mM⁻¹ s⁻¹; in data set [1] (Human plasma), 41.1 mM⁻¹ s⁻¹; in data set [1] (Water), 23.9 mM⁻¹ s⁻¹. The “r1p (stability at 37° C.)” value in data set [2] (HSA 4%, 5 h) came to 40.4 mM⁻¹ s⁻¹; in data set [2] (HSA 4%, T0) it was 45.8 mM⁻¹ s⁻¹; in data set [2] (Water, 5 h), 23.4 mM⁻¹ s⁻¹; in data set [2] (Water, T0), 23.9 mM⁻¹ s⁻¹.
Turning to `CCCCCCCCN(CCCCCCCC)C(=O)C1CCC(C2(N(CC(=O)[O-])CC(=O)[O-])CN(CC(=O)[O-])CCN(CC(=O)[O-])C2)CC1.[Gd+3].[Na+]` [Compound 25b, [6-[Bis(carboxymethyl)amino]-6-[(1R,4R)-4-[(dioctylamino)-carbonyl]-cyclohexane-1-yl]tetrahydro-1H-1,4-diazepine-1,4(5H)diacetate(4-)]gadolinate(1-)]sodium], the r1p stood at 41.0 mM⁻¹ s⁻¹ in data set [1] (HSA 4%), 39.1 mM⁻¹ s⁻¹ in data set [1] (Human plasma) and 14.6 mM⁻¹ s⁻¹ in data set [1] (Water).
The corresponding values for `CCCCCCCCCC(=O)OC[C@H](COP(=O)([O-])OCCNC(=O)C1CCC(C2(N(CC(=O)[O-])CC(=O)[O-])CN(CC(=O)[O-])CCN(CC(=O)[O-])C2)CC1)OC(=O)CCCCCCCCC.[Gd+3].[Na+].[Na+]` (stereo partly drawn) [Compound 25c, [6-[-[Bis(carboxymethyl)amino]-6-[(1R,4R)-4-[[[(7R)-4-hydroxy-4-oxido-10-oxo-7-[(1-oxodecyl)oxy]-3,5,9-trioxa-4-phosphanonadec-1-yl]amino]-carbonyl]-cyclohexane-1-yl]tetrahydro-1H-1,4-diazepine-1,4(5H)-diacetate(5)]gadolinate(2-)]disodium] are 40.2 mM⁻¹ s⁻¹, 43.0 mM⁻¹ s⁻¹ and 14.7 mM⁻¹ s⁻¹.
For the compound `C[NH2+]C[C@H](O)[C@@H](O)[C@H](O)[C@H](O)CO.C[NH2+]C[C@H](O)[C@@H](O)[C@H](O)[C@H](O)CO.O=C([O-])CN(CCN(CC(=O)[O-])CC(=O)[O-])CCN(CC(=O)[O-])C(COCc1ccccc1)C(=O)[O-].[Gd+3]` (stereo not drawn) [Gd-BOPTA, [[4-(carboxy)-5,8,11-tris(carboxymethyl)-1-phenyl-2-oxa-5,8,11-triazatridecan-13-oato(5-)]gadolinate(2-)]dimeglumine, reference compound], the r1p was found to be 8.9 mM⁻¹ s⁻¹ in data set [1] (HSA 4%), 8.7 mM⁻¹ s⁻¹ in data set [1] (Human plasma) and 4.6 mM⁻¹ s⁻¹ in data set [1] (Water).
Taken in the same sequence, the figures for `O=C([O-])CN1CCN(CC(=O)[O-])CCN([C@H](CO)[C@H](O)CO)CCN(CC(=O)[O-])CC1.[Gd+3]` [Gd-BT-DO3A, reference compound] were 4.31 mM⁻¹ s⁻¹, 5.76 mM⁻¹ s⁻¹ and 3.75 mM⁻¹ s⁻¹.
Taken in the same sequence, the figures for `C[NH2+]C[C@H](O)[C@@H](O)[C@H](O)[C@H](O)CO.O=C([O-])CN1CCN(CC(=O)[O-])CCN(CC(=O)[O-])CCN(CC(=O)[O-])CC1.[Gd+3]` [Gd-DOTA, [[1,4,7,10-tetraazacyclododecane-1,4,7,10-tetraacetato(4-)]gadolinate(1-)] meglumine, reference compound] were 4.11 mM⁻¹ s⁻¹, 4.51 mM⁻¹ s⁻¹ and 3.61 mM⁻¹ s⁻¹.
The corresponding values for `CC(O)CN1CCN(CC(=O)[O-])CCN(CC(=O)[O-])CCN(CC(=O)[O-])CC1.[Gd+3]` (stereo not drawn) [Gd-HP-DO3A, [10-(2-hydroxyprop-1-yl)-1,4,7,10-tetraazacyclododecane-1,4,7-triacetato(3-)]gadolinium, reference compound] are 3.85 mM⁻¹ s⁻¹, 4.80 mM⁻¹ s⁻¹ and 3.32 mM⁻¹ s⁻¹.
